From US20090023804A1, “ELECTROCHEMICAL METHODS FOR REDOX CONTROL TO PRESERVE, STABILIZE AND ACTIVATE COMPOUNDS” (priority 2006, published 2009)

Columns and labels:
Type in all cases: physicochemical
[1] = Reduction potential of model compounds; settings: pH 7 Buffer solution versus Normal Hydrogen Electrode (NHE)
Method: The redox potential of the solution is measured by open cell potential. […] Cyclic voltammetry can be used to identify the various oxidation states and redox potentials for future manipulation of redox state. Additionally, FIG. 5 in the present application provides a working example of this assay by depicting the cyclic voltammetry trace for hypericin. As shown, there are multiple peaks in the range of 0-2 volts, that are the result of the different redox states of hypericin. This is manipulated according to the preferred or desired redox state to be achieved.
Once the redox potential of the preparation is measured, the redox state may be adjusted to the preferred or desired condition at any stage as previously described.
The multiple oxidation states of the molecule of interest can be determined electrochemically by cyclic voltammetry. The first phase involves applying an excessive positive potential (oxidizing potential) and oxidizing all the species present to one form. Then the applied voltage is stepped down in increments while monitoring current. When the mid-point redox potential of a reaction is approached, molecules begin to be reduced, causing current through the circuit. After returning all molecules to the reduced form, the voltage is increased and the redox potentials of the reaction(s) are recorded. […]

[2] = Electrochemical oxidation of EGCG solutions at pH 6.0, followed by UV-visible absorbance and open circuit potential
Text: An electrochemical cell was fabricated using a fine porosity glass frit in 1″ diameter glass tubing. The electrochemical cell houses the counter electrode and keeps the Ag/AgCl reference electrode and platinum working electrode separate from the counter electrode. This addition to the system allowed the preparation of bulk solution. The working electrode and reference electrode compartment was continuously stirred using a small stir bar and a magnetic stirrer to minimize gradient effects at the working electrode.
The EGCG solutions were oxidized using a positive potential to a visual end point. UV-visible spectral data were collected during these experiments, including the absorbance at 270 nm and 320 nm, corresponding to the phenol and quinone forms of EGCG, respectively. In addition, the open cell potential was recorded as experiments progressed. The active redox potentials and experimental endpoints were determined based on current and visual color changes.
Due to solution evaporation over time, the ratio of absorbance at 320 nm divided by the absorbance at 270 nm was determined in order to account for overall absorption increases. […] In addition, the visual change in solution color from clear to yellow and pink was also monitored as an indicator of degree of oxidation.
Stirred EGCG solutions in 0.1 M phosphate buffer with 0.1 M KCl at pH 6.0 were monitored. […]

[3] = Stability of electrochemically oxidized EGCG solutions after pH modification (UV-visible spectra)
Text: Solutions were pH modified following electrochemical oxidation to observe stability. […] These samples were open to air, and no other precautions were taken to prevent oxidation by atmospheric oxygen.

Row | change in absorbance at 270 and 320 nm ([2]; after seven hours, 800 mV solution and control solution) | stability of electrochemically-induced changes (320 nm absorbance over time) ([2]; solutions left with no current after 68 h, until 120 h) | stability of pH-modified sample after electrochemical oxidation ([3]; EGCG solution pH 6.26, 1500 mV for 11.4 hours, then pH 8.43, open to air, after 7 days) | stability of pH-modified samples after electrochemical oxidation ([3]; EGCG solution pH 6.26, 1500 mV for 11.4 hours, then pH modified, open to air, after one day) | oxidation of control samples ([3]; control samples at pH 6.26, no potential) | SMILES | Reduction Potential [1]
1 | – | – | – | – | – | O=C(O)/C=C/c1ccc(O)c(O)c1 [Caffeic Acid] | 120 mV
2 | no change | stable for over two days | relatively stable after 7 days | stable after one day | did not oxidize | O=C(O[C@@H]1Cc2c(O)cc(O)cc2O[C@@H]1c1cc(O)c(O)c(O)c1)c1cc(O)c(O)c(O)c1 [Epigallocatechin gallate, epigallocatechin gallate] | –
3 | – | – | – | – | – | O=c1c(O)c(-c2ccc(O)c(O)c2)oc2cc(O)cc(O)c12 [Quercitin] | 120 mV
